Experiments:
[1] = DRUGMATRIX: Glutamate, NMDA, Agonism radioligand binding (ligand: [3H] CGP-39653); format: cell membranes, Rattus norvegicus, Wistar, Cerebral cortex, Membrane; conditions: Not Active = under 50% inhibition at 10 µM
[2] = target: 5-hydroxytryptamine receptor 2B (Homo sapiens, UniProt P41595); format: cell membranes, CHO-K1, Membrane; conditions: cho-k1; further: in other assays of this panel Not Active means under 50% inhibition at 10 µM
[3] = target: T1, Alpha-1B adrenergic receptor (Rattus norvegicus, UniProt P15823); test: DRUGMATRIX: Alpha-1B adrenergic receptor radioligand binding (ligand: prazosin); format: cell membranes, Wistar, Liver, Membrane; conditions: Not Active = under 50% inhibition at 10 µM
T1 sequence (P15823 whole entry): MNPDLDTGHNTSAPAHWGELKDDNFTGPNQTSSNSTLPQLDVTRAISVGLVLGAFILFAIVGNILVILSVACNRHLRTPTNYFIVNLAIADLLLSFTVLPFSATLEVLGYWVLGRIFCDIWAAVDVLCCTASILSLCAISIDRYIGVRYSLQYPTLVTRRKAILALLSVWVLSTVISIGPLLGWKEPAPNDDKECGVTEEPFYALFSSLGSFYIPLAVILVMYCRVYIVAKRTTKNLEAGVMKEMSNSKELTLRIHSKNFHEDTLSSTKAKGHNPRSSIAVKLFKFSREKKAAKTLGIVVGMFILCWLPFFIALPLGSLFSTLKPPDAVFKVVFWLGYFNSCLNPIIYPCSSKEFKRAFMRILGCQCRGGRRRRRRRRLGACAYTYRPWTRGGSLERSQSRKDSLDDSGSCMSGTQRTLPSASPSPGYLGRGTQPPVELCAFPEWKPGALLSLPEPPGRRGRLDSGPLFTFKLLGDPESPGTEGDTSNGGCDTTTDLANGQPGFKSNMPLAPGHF

[4] = target: Cytochrome P450 2E1 (Homo sapiens, UniProt P05181); conditions: bti-tn-5b1-4; further: in other assays of this panel Not Active means under 50% inhibition at 10 µM
Sequence of Cytochrome P450 2E1 (P05181 whole entry): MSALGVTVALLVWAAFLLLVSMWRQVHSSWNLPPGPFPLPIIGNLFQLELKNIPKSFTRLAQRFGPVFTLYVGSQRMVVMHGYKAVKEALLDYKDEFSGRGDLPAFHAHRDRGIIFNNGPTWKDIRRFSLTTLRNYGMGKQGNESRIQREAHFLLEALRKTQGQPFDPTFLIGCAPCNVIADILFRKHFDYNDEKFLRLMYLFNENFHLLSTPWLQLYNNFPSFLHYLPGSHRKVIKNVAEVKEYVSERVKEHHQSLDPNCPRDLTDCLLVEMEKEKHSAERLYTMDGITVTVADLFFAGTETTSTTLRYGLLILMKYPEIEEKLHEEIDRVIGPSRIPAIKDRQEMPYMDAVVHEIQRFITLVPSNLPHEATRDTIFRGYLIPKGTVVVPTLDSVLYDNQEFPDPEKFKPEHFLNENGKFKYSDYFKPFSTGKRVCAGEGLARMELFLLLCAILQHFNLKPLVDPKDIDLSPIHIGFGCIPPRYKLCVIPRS

[5] = target: Nitric oxide synthase 1 (Rattus norvegicus, UniProt P29476); format: tissue-based, Cerebellum; further: in other assays of this panel Not Active means under 50% inhibition at 10 µM
Sequence of Nitric oxide synthase 1 (P29476 whole entry): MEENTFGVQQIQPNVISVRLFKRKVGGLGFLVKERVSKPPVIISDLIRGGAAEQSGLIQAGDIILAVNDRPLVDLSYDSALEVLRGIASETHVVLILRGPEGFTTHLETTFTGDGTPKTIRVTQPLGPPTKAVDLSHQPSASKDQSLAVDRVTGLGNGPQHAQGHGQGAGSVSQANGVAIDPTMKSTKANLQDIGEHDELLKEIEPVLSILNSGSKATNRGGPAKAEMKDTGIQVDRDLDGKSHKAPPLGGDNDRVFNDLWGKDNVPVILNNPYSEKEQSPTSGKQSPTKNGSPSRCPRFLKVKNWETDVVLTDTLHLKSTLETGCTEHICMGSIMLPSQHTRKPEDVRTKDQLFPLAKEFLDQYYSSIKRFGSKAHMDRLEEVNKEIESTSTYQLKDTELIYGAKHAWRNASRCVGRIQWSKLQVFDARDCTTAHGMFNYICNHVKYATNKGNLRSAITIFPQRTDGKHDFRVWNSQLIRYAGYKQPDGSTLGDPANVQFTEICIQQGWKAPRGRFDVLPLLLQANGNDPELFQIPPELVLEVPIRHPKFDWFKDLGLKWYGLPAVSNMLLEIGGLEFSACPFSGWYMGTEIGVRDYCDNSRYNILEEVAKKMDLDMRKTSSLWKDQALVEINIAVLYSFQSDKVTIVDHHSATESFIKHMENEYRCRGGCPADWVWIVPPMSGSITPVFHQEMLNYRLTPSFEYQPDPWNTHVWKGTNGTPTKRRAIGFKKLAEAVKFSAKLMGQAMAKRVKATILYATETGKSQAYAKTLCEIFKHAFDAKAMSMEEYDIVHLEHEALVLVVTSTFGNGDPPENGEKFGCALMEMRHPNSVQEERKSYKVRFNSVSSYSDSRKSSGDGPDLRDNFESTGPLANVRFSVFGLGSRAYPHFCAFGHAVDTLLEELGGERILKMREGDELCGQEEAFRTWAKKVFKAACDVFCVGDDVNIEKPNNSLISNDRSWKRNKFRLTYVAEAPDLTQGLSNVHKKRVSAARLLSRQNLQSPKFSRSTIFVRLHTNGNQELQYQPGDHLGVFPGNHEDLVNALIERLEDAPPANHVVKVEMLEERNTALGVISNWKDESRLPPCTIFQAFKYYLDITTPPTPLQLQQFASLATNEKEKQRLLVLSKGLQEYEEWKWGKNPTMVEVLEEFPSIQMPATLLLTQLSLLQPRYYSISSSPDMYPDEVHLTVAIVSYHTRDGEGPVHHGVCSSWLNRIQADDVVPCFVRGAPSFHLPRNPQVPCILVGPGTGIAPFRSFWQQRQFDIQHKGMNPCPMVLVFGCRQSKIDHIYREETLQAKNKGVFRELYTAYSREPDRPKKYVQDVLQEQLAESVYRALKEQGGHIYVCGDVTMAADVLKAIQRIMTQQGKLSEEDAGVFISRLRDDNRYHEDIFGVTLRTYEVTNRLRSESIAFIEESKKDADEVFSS

[6] = target: Protein kinase C alpha type (Homo sapiens, UniProt P17252); format: cell-based; conditions: sf9;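 further: inhibition of PKCalpha kinase activity measured in an enzyme assay with histone as the phosphorylation substrate; in other assays of this panel Not Active means under 50% inhibition at 10 µM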
[7] = DRUGMATRIX: Glutamate, AMPA radioligand binding (ligand: [3H] AMPA); format: cell membranes, Rattus norvegicus, Wistar, Cerebral cortex, Membrane; conditions: Not Active = under 50% inhibition at 10 µM
[8] = target: T2, Receptor-type tyrosine-protein phosphatase C (Homo sapiens, UniProt P08575); parameters: species or system Escherichia coli
T2 sequence (P08575 whole entry): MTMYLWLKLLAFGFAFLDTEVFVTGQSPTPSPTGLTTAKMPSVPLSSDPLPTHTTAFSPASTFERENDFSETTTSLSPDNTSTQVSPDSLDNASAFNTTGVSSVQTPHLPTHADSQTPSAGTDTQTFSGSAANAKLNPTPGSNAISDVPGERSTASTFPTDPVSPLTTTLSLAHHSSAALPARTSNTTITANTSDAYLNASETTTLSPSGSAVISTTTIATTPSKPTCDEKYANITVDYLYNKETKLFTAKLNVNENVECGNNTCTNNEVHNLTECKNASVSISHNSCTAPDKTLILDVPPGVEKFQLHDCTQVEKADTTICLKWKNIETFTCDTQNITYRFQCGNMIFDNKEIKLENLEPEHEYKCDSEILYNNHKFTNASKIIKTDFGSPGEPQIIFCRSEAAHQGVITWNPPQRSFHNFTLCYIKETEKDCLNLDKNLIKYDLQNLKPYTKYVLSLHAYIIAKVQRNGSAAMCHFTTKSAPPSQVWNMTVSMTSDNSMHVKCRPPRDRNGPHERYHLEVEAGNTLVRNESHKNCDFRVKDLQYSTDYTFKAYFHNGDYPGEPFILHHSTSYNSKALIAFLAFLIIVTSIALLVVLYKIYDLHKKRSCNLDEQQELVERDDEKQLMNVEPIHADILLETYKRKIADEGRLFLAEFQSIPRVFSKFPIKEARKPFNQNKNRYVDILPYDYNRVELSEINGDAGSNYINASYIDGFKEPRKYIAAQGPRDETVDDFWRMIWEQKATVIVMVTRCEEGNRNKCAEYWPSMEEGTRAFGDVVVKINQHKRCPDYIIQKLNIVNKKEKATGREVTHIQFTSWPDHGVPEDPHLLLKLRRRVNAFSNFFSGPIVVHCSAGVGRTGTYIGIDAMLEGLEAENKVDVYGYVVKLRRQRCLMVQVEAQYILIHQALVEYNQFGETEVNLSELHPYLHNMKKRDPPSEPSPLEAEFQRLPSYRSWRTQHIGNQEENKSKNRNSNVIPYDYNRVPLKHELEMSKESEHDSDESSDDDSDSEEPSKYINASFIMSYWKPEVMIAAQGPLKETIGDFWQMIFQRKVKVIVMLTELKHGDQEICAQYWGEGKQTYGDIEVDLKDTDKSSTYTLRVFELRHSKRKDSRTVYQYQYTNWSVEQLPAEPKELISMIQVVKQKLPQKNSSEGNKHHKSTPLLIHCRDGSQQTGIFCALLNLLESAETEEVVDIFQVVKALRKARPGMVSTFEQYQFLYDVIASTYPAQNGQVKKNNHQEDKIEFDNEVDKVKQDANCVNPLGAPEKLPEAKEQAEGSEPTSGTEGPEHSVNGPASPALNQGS

[9] = target: cGMP-specific 3',5'-cyclic phosphodiesterase (Homo sapiens, UniProt O76074); test: DRUGMATRIX: Phosphodiesterase PDE5 enzyme inhibition (substrate: [3H]cGMP + cGMP); format: tissue-based; conditions: platelet; Not Active = under 50% inhibition at 10 µM

Sequence of 5-hydroxytryptamine receptor 2B (P41595 whole entry): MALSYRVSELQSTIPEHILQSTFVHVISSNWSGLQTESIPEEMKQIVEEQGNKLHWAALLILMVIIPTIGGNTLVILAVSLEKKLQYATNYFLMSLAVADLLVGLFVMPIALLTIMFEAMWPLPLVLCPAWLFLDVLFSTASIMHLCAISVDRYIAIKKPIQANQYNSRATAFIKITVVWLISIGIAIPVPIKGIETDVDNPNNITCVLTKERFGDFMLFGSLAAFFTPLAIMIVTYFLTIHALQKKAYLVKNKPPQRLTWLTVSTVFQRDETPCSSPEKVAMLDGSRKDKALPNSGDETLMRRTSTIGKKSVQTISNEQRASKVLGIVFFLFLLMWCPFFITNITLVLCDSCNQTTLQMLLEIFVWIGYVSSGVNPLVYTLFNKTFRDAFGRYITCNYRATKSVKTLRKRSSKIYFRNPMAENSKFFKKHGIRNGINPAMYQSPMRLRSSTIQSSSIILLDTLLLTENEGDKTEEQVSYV

C=CCC1(C(C)CCC)C(=O)NC(=O)NC1=O (stereo unspecified) [SECOBARBITAL]
Not Active: IC50 [1] | Ki [1] | IC50 [2] | IC50 [3] | IC50 [4] | Ki [4] | IC50 [5] | IC50 [6] | IC50 [7] | Ki [7] | IC50 [8] | IC50 [9]

CC(=O)[C@@]1(O)CC[C@H]2[C@@H]3C[C@H](C)C4=CC(=O)CC[C@]4(C)[C@H]3CC[C@@]21C
Not Active: IC50 [1] | Ki [1] | IC50 [2] | IC50 [3] | IC50 [4] | Ki [4] | IC50 [5] | IC50 [6] | IC50 [7] | Ki [7] | IC50 [8] | IC50 [9]

N#CC(C#N)=Cc1ccc(O)c(O)c1 [TYRPHOSTIN 23]
Not Active: IC50 [1] | Ki [1] | IC50 [2] | IC50 [3] | IC50 [4] | Ki [4] | IC50 [5] | IC50 [6] | IC50 [7] | Ki [7] | IC50 [8] | IC50 [9]

— ChEMBL document CHEMBL1909046, “DrugMatrix in vitro pharmacology data”
